Like-named read-outs stand apart in the source and are kept apart here. No end group written: not given here.
Key:
[1] = tested on: F11 cells; format: cell-based, mouse neuroblastoma × rat DRG cell line; details: FLIPR, Calcium 4; peptide in PSS + 0.1% BSA, 300 s; mean ± SEM, n = 6; read-out: EC50, increase of [Ca2+]i in F11 cells
Experimental: F11 (mouse neuroblastoma × DRG neuron hybrid; European Collection of Authenticated Cell Cultures) were cultured as previously described. Cells were maintained on Ham’s F12 media supplemented with 10% FBS, 100 µM hypoxanthine, 0.4 µM aminopterin, and 16 µM thymidine (Hybri-Max, Sigma Aldrich). 384-well imaging plates (Corning, Lowell, MA, USA) were seeded 24 h prior to calcium imaging, resulting in ~ 90% confluence at the time of imaging. Cells were loaded for 30 min at 37 °C with Calcium 4 assay component A in physiological salt solution (PSS; 140 mM NaCl, 11.5 mM D-glucose, 5.9 mM KCl, 1.4 mM MgCl2, 1.2 mM NaH2PO4, 5 mM NaHCO3, 1.8 mM CaCl2, 10 mM HEPES) according to the manufacturer’s instructions (Molecular Devices, Sunnyvale, CA). Ca^2+ responses were measured using a FLIPR^TETRA fluorescent plate reader equipped with a CCD camera (Ex: 470 to 490 nm, Em: […]) (Molecular Devices, Sunnyvale, CA). Signals were read every second for 10 s before, and 300 s after, the addition of peptide (in PSS supplemented with 0.1% BSA).
Data were plotted and analysed using Prism v9.0.0 (GraphPad Software, San Diego, CA, USA). For calcium imaging experiments of mouse DRG neurons and F11 cells, treatment groups were compared using unpaired t-tests. […]

[2] = tested on: mice; assay: Paw swelling (paw thickness) after intraplantar injection; format: in vivo, male C57BL/6J mice; details: 200 pmol + venom PLA2 (20 pmol)
[3] = cited from earlier work
Text: By far the most studied bee venom is that of the Western honeybee Apis mellifera. Its venom is dominated by a 26-residue cysteine-free amphipathic peptide known as melittin which makes up 40–60% of the dry weight of the venom. Another major components is venom phospholipase-A2 (PLA2; 10–12% dry weight), with smaller amounts of histamine (5–10%), venom hyaluronidase (1–2%) and the small disulfide-rich peptides apamin (3%) and mast cell-degranulating (MCD)-peptide (2%)[4]. Other reported components are present in trace amounts.

[4] = tested on: mice; format: in vivo, male C57BL/6J mice; details: for pain behaviours on co-injection with venom PLA2: 200 pmol + venom PLA2 (20 pmol); for spontaneous pain behaviours: 200 pmol alone, 20 µL
[5] = tested on: HEK293AD cells; assay: Whole-cell patch-clamp, leak current in HEK293AD cells (QPatch 16X); format: cell-based
Experimental: The mature peptide of XYTX1-Xa1a shares a similar primary structure with Xac-1, Xac-2 and melectin. […] We hypothesised that XYTX1-Xa1a would share the same activity. We tested, by whole-cell patch-clamp electrophysiology, the capacity of XYTX1-Xa1a to directly induce leak currents in cell membranes. For these experiments we used HEK293AD cells, which lack appreciable expression of the ion channels found in neurons. At 4 min after application of XYTX1-Xa1a (30 μM) we recorded leak currents at test potentials ranging from − 60 to + 60 mV in 10-mV increments from a holding potential of 0 mV every 6 s. At + 60 mV, we recorded currents of 3.3 ± 0.6 nA (mean ± SEM, n = 6 cells) compared with 0.08 ± 0.02 nA (n = 5 cells) for time-matched negative controls (application of extracellular solution (ECS)) (Fig. 3a–c).
(a) Representative current traces in HEK293AD cells at voltages of − 60 to + 60 mV (10 mV steps) acquired before application and 2 min after application of (a) extracellular solution (ECS) or (b) 30 μM XYTX1-Xa1a. […] Data are expressed as mean ± SEM (n = 5–6 cells) and fitted to a simple linear regression. […]
HEK293AD cells (American Type Culture Collection) were cultured as previously described. […] From a holding potential of 0 mV each recorded cell was subjected to a series of 50-ms voltage pulses that ranged from − 60 to + 60 mV in 10-mV increments. […]

[6] = tested on: mouse dorsal root ganglion (DRG) cells; assay: Calcium imaging assay of mouse DRG neurons; format: cell-based
Experimental: Figure 5 Pain-causing effects of X. aruana venom components. (a,b) Application of XYTX1-Xa1a (10 μM) to DRG cells produced an immediate and sustained, non-cell-specific increase in [Ca^2+]i. (c) Potency of XYTX1-Xa1a and melittin in F11 cells, as monitored by changes in [Ca^2+]i. (d–f) The increase in [Ca^2+]i caused by XYTX1-Xa1a was potentiated by the presence of venom PLA2 (1 µM), but not XYTX2-Xa2a (1 μM). **P < 0.01 (unpaired t-test). […] Data are expressed as mean ± SEM (n = 3–6). […] Data are expressed as mean ± SEM (n = 3–6). *P < 0.05; **P < 0.01; ****P < 0.0001 (one way-ANOVA with Tukey’s multiple comparisons).
DRG cells were isolated from 4- to 6-week-old-male C57BL/6 mice that were purchased from the Animal Resources Centre (WA, Australia). DRGs were dissociated, then cells were plated in Dulbecco’s Modified Eagle’s Medium (DMEM; Gibco, MD, USA) containing 10% fetal bovine serum (FBS) (Assaymatrix, VIC, Australia) and penicillin/streptomycin (Gibco) on a 96-well poly-D-lysine-coated culture plate (Corning, ME, USA) and maintained overnight. Cells were loaded with Fluo-4 AM calcium indicator, according to the manufacturer’s instructions (ThermoFisher Scientific, MA, USA). After loading (1 h), the dye-containing solution was replaced with assay solution (1× Hanks’ balanced salt solution, 20 mM HEPES). Images were acquired at 10× objective at 1 frame/s (excitation 485 nm, emission 521 nm). Fluorescence corresponding to [Ca^2+]i of ~ 250 cells per experiment was monitored in parallel using an Nikon Ti-E Deconvolution inverted microscope, equipped with a Lumencor Spectra LED Lightsource. Baseline fluorescence was monitored for 30 s. At 30 s, assay solution was replaced with either assay solution, or assay solution containing venom PLA2 (1 µM) or XYTX2-Xa2a (1 µM), then at 1 min with XYTX1-Xa1a (in assay solution ± venom PLA2 (1 µM) or XYTX2-Xa2a (1 µM)) and monitored for 2 min before being replaced with assay solution and then KCl (30 mM; positive control). Experiments involving the use of mouse tissue were approved by the University of Queensland Animal Ethics Committee (UQ AEC; approval number TRI/IMB/093/17).
Data were plotted and analysed using Prism v9.0.0 (GraphPad Software, San Diego, CA, USA). For calcium imaging experiments of mouse DRG neurons and F11 cells, treatment groups were compared using unpaired t-tests. For analysis of spontaneous pain, sum of pain behaviour counts at 30 min of treatment groups were compared using one-way ANOVA with Tukey’s multiple comparisons test. Statistical significance was defined as P < 0.05. All data are presented as mean ± SEM.

[7] = tested on: Shaker-like voltage-gated potassium (KV) channel KV1.1; details: cited from earlier work
[8] = tested on: mice; format: in vivo, male C57BL/6J mice
[9] = tested on: Shaker-like voltage-gated potassium (KV) channel KV1.2; details: cited from earlier work
[10] = tested on: mammalian small conductance calcium-activated potassium (KCa, SK) channel KCa2.2; details: cited from earlier work
Text: XYTX2-Xa2a is similar in sequence to Bombus and Apis MCD-peptides and apamin. Apamin is a blocker of the mammalian small conductance calcium-activated potassium (KCa, SK) channel KCa2.2[20], while Apis MCD peptide is a blocker of Shaker-like voltage-gated potassium (KV) channels KV1.1 and KV1.2[21]. We hypothesised that XYTX2-Xa2a might share similar activity. Thus, we tested XYTX2-Xa2a for activity on human KV1.1, KV1.2, KV1.3, KCa2.1 and KCa2.2.

CC[C@H](C)[C@H](NC(=O)CN)C(=O)NCC(=O)N[C@@H](C)C(=O)N[C@H](C(=O)N[C@@H](CC(C)C)C(=O)N[C@@H](CCCCN)C(=O)N[C@H](C(=O)N[C@@H](CC(C)C)C(=O)N[C@H](C(=O)N[C@H](C(=O)NCC(=O)N[C@@H](CC(C)C)C(=O)N1CCC[C@H]1C(=O)N[C@@H](C)C(=O)N[C@@H](CC(C)C)C(=O)N[C@H](C(=O)N[C@@H](CO)C(=O)N[C@@H](Cc1c[nH]c2ccccc12)C(=O)N[C@H](C(=O)N[C@@H](CCCCN)C(=O)N[C@@H](CCCNC(=N)N)C(=O)N[C@@H](CCCCN)C(=O)N[C@@H](CCCNC(=N)N)C(=O)N[C@@H](CCC(N)=O)C(=O)N[C@@H](CCC(N)=O)C(N)=O)[C@@H](C)CC)[C@@H](C)CC)[C@@H](C)O)[C@@H](C)O)C(C)C)C(C)C [melittin]
EC50 [1]: 1.2 ± 0.1 µM | paw swelling [2]: caused paw swelling | pore formation [3]: can form pores in cell membranes | pain behaviours on co-injection with venom PLA2 [4]: potentiated by co-injection with 20 pmol venom PLA2 | spontaneous pain behaviours ([4]; shallow intraplantar): caused spontaneous pain behaviours | leak current in HEK293AD cells ([5]; 10 μM melittin, 2 min after addition, n = 5 cells, Fig. S4): causes a leak current in HEK293AD cells

GFLSILKKLPLILKHLP-NH2 [XYTX1-Xa1a]
EC50 [1]: 5.2 ± 0.7 µM | paw swelling [2]: caused paw swelling | neurons with increase of [Ca2+]i ([6]; 10 μM (Fig. 5 legend), alone, mean ± SEM): 49.4 ± 3.2% | neurons activated, in the presence of XYTX2-Xa2a ([6]; with XYTX2-Xa2a (1 μM), mean ± SEM): 45.8 ± 5.5% | cell lysis in the presence of venom PLA2 ([6]; with venom PLA2 (1 µM), leakage of dye into extracellular media): increased cell lysis | neurons activated, in the presence of venom PLA2 ([6]; with venom PLA2 (1 µM), mean ± SEM): 93.2 ± 6.5% | pain behaviours on co-injection with venom PLA2 [4]: increased (frequency and duration) | spontaneous pain behaviours ([4]; shallow intraplantar): caused spontaneous pain behaviours | leak current at + 60 mV ([5]; 30 μM, 4 min after application, holding potential 0 mV, mean ± SEM, n = 6 cells, negative control ECS 0.08 ± 0.02 nA (n = 5 cells)): 3.3 ± 0.6 nA

MCD-peptide: mast cell-degranulating (MCD)-peptide of A. mellifera (Uniprot: P01499), purchased from Alomone labs (IKCNCKRHVIKPHICRKICGKN; UniProt P01499 28-49, looked up)
block of KV1.1 [7]: blocker | paw-withdrawal threshold to a mechanical stimulus versus negative control (saline) ([8]; mouse, in vivo): no difference to negative control (saline) injection | block of KV1.2 [9]: blocker | pain behaviour counts versus control ([4]; mouse, in vivo): not different to control

apamin: A. mellifera apamin (Uniprot: P01500), purchased from Alomone labs (CNCKAPETALCARRCQQH; UniProt P01500 28-45, looked up)
paw-withdrawal threshold to a mechanical stimulus versus negative control (saline) ([8]; 2 pmol/paw intraplantar, 1 and 4 h): no difference to negative control (saline) injection | block of mammalian KCa2.2 [10]: blocker | pain behaviour counts versus control ([4]; 2 pmol alone, shallow intraplantar): not different to control

— PMC9780326, “Venom composition and pain-causing toxins of the Australian great carpenter bee Xylocopa aruana” (Scientific Reports, 2022)
